Experiment [1] deals with T1, glucocorticoid receptor (GR) (Homo sapiens, UniProt P04150).
T1 construct: made in house; host or cells: Sf9 cells infected with recombinant baculovirus (cytosol preparation)
T1 sequence (P04150 1-777): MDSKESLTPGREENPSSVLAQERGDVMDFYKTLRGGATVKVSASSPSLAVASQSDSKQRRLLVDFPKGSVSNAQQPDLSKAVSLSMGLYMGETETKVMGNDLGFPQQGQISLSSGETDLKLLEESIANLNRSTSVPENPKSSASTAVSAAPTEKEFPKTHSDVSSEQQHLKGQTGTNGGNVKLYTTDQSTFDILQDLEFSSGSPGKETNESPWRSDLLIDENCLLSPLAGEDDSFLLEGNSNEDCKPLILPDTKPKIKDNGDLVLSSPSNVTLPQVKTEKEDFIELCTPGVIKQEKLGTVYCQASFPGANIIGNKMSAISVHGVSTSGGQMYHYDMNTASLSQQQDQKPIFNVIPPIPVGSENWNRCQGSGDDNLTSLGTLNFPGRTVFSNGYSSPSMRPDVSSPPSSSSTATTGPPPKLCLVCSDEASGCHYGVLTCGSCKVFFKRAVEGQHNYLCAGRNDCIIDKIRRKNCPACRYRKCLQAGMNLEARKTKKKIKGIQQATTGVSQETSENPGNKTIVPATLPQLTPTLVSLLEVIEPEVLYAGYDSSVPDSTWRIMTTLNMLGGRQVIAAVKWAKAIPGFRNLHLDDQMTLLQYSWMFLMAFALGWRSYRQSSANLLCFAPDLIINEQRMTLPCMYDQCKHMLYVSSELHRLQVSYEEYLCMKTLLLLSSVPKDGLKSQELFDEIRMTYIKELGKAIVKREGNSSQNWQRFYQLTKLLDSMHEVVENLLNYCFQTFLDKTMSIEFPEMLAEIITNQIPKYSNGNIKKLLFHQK
As to the kind of experiment: Binding to the glucocorticoid receptor, recombinant receptor in Sf9 cytosol, vs [3H]-dexamethasone. The following applies: cytosol of Sf9 cells, [3H]-dexamethasone as reference. The text has this:
(§1) The binding of the substances to the glucocorticoid receptor (GR) and other steroid-hormone receptors (mineral corticoid receptor (MR), progesterone receptor (PR) and androgen receptor (AR)) is examined with the aid of recombinantly produced receptors. Cytosol preparations of Sf9 cells, which had been infected with recombinant baculoviruses that code for the GR, are used for the binding studies. In comparison to the reference substance [^3H]-dexamethasone, the substances show a high affinity to the GR.

Experiment [2] has as its target T2, progesterone receptor (PR) (Homo sapiens, UniProt P06401).
T2 construct: made in house
T2 sequence (P06401 1-933): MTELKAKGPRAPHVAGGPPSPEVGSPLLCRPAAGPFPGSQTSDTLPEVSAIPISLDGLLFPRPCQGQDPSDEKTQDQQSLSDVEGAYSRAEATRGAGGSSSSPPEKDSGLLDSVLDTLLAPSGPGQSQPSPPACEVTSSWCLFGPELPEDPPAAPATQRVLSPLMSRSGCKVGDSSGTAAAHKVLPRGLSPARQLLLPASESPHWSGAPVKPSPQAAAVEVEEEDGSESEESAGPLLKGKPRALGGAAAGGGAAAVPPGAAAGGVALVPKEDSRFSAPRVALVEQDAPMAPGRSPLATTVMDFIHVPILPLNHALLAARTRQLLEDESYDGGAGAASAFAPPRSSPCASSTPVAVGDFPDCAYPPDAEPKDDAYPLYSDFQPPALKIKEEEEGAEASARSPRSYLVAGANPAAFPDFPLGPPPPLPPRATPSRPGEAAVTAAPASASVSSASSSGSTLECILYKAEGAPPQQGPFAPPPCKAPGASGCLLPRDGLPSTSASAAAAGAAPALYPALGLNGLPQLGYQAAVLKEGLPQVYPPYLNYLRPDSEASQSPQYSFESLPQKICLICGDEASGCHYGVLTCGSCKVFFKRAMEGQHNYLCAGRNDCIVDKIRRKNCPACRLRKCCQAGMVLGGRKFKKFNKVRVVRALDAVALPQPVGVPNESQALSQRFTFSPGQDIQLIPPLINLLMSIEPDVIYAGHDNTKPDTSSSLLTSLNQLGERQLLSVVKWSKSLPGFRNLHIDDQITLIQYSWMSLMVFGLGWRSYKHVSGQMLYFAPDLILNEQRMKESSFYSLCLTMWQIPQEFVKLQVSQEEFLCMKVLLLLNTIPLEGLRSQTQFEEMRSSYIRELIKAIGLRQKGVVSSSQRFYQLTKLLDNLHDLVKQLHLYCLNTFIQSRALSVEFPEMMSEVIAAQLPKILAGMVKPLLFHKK
As to the kind of experiment: Binding to the progesterone receptor, recombinantly produced receptor.
Source text: as §1

The test system of experiment [3] is cytokine IL-8 secretion, human monocyte cell line THP-1. As to the kind of experiment: Inhibition of LPS-triggered IL-8 secretion in THP-1 cells (ELISA). Type of experiment: cell-based. How it is done:
The concentration of the cytokines was determined in the supernatant by means of commercially available ELISA kits.

Results on one compound are retold here after patent publication US20060229305A1, “Tetrahydronaphthalene derivatives, process for their production and their use as anti-inflammatory agents” (priority 2005, published 2006).

SMILES strings stand for the structures.

What is called IC50 is the midpoint of a concentration-inhibition curve. In the case of `Cc1ncc2c(NC3c4ccc(F)c(O)c4C(C)C(C)C3(O)C(F)(F)F)cc(F)cc2n1` (racemic) [Example 3, 2-Fluoro-5-[(7-fluoro-2-methylquinazolin-5-yl)amino]-5,6,7,8-tetrahydro-7,8-dimethyl-6-(trifluoromethyl)naphthalene-1,6-diol], the half-maximal inhibitory concentration (IC50) in experiment [1] was 36 nM; in experiment [2], greater than 1000 nM; in experiment [3] (Homo sapiens, LPS-triggered IL-8 secretion, THP-1, ELISA of supernatant, read-out: IC50(IL8)), 130 nM. Moreover, the “efficiency relative to [3H]-dexamethasone as a standard” value in experiment [3] (IL-8 inhibition, THP-1, LPS) turned out to be 80%.
